The values that follow are results of earlier work, collected in article PMC5618157, “The Role of Disulfide Bond Replacements in Analogues of the Tarantula Toxin ProTx-II and Their Effects on Inhibition of the Voltage-Gated Sodium Ion Channel Nav1.7” (Journal of the American Chemical Society, 2017).

One data set has as its system mouse model (analgesia). The note with it: injections of ProTx-II. The source says:
Despite these structural studies, much remains unknown about the mechanism of action of ProTx-II on Nav1.7. […] Instead, studies into the interaction of ProTx-II and HwTx-IV with hNav1.7 proposed that both peptides interact with the domain II voltage-sensing domain (VSD), with ProTx-II also trapping the domain IV VSD in the resting configuration.[38] Mutagenesis experiments on ProTx-II by Park and co-workers,[36] and investiga ...

Another data set deals with Nav1.7. The conditions noted are these: read-out: IC50 against Nav1.7. The source says: ProTx-II has been the subject of particular interest from researchers as a possible lead for the treatment of chronic nociceptive pain.[4] […] Nav1.7 has been implicated as a target for the treatment of chronic pain after loss-of-function mutations in the corresponding SCN9A gene left their carriers unable to feel pain, with seemingly no ...

In the case of ProTx-II, the “analgesia in a mouse model” value in the data set on mouse model (analgesia) was “failed to elicit analgesia”. The half-inhibitory concentration (IC50) (in general, the concentration that gives 50% inhibition) in the data set on Nav1.7 was 0.3 nM.
